Results as given in patent US7504426B2, “Heterocyclic compounds” (Janssen Pharmaceutica N.V., priority 2003, dated 2009).

Legend:
Mast cells = experiment: Mast cell chemotaxis assay (histamine-induced, transwell); format: cell-based; settings: 10 μM histamine; HR antagonist 1 μM
Description: Mast Cell Chemotaxis Assay
Mast cell accumulation in mucosal epithelia is a well-known characteristic of allergic rhinitis and asthma. Transwells (Costar, Cambridge, Mass.) of a pore size 8 μm were coated with 100 μL of 100 ng/mL human fibronectin (Sigma) for 2 h at room temperature. […] Mast cells (2×10^5/well) were added to the top chamber. The plates were incubated for 3 h at 37° C. Transwells were removed, and the cells in the bottom chamber were counted for sixty seconds using a flow cytometer.

[1] = molecular target: T1, human histamine H4 receptor (Homo sapiens, UniProt Q9H3N8); experiment: biochemical
[2] = molecular target: T1, human histamine H4 receptor; experiment: Binding assay on recombinant human histamine H4 receptor (3H-histamine displacement); settings: read-out: Binding Assay Ki; repeated in the chemotaxis table

Ki [1] | Ki [2] | SMILES | % Inh (Mast cells)
87 nM | 87 nM | O=C(c1nc2cc(Cl)ccc2[nH]1)N1CCNCC1 [Example 7, (5-Chloro-1H-benzoimidazol-2-yl)-piperazin-1-yl-methanone] | 8%
28 nM | 28 nM | CN1CCN(C(=O)c2nc3cc(F)c(F)cc3[nH]2)CC1 [Example 9, (5,6-Difluoro-1H-benzoimidazol-2-yl)-(4-methyl-piperazin-1-yl)-methanone] | 

SMILES | Ki [1] | Ki [2] | % Inh (Mast cells)
Cc1ccc2[nH]c(C(=O)NC3CC4CCC(C3)N4C)nc2c1 (stereo not shown) [Example 25, 5-Methyl-1H-benzoimidazole-2-carboxylic acid (8-methyl-8-aza-bicyclo[3.2.1]oct-3-yl)-amide] | 613 nM | 613 nM | 
